# Experimental data published in patent US7045145B1, “Transdermal contraceptive delivery system and process” (Agile Therapeutics, Inc., priority 1999, dated 2006).
# Test: clinical
# Settings: female, human, in vivo
# Method: Serum level of levonorgestrel (LNG), ethinyl estradiol (EE) as well as luteinizing hormone (LH), progesterone (P) and estradiol (E2) were analyzed by radio-immunassay methods.
# The total duration of study for each subject participating in this study is 5 months. It consists of one base-line period followed by three treatment periods and one recovery period. Each period is one menstrual cycle of the person subjects.
# Subjects attending this 5 month-long study were randomly divided and sequentially admitted into three study groups. Group A, B and C subjects received one piece of 7.5 cm^2, 10.0 cm^2 and 12.5 cm^2 TCDS patch weekly, respectively, for three consecutive weeks I each of the three treatment periods. During the baseline and recovery periods, all the subjects received only the placebo patch of the corresponding size for three consecutive weeks. During the fourth week of each study period, no patch was worn by the subjects in any treatment groups.
# According to the blood sampling schedule, a total of 57 blood samples (about 10 ml per sample) were taken from each subject during the 5-month study. During the three treatment cycles, 15 samples were taken through out the 21 days of patch wearing period. At the end of the third treatment cycle, 5 additional blood samples were taken during the 24 hours post patch removal which allows the elimination pharmacokinetics of drugs to be studied. […]
compound,measurement,value
C#C[C@]1(O)CC[C@H]2[C@@H]3CCC4=CC(=O)CC[C@@H]4[C@H]3CC[C@@]21CC [levonorgestrel],Cmax,> 2 ng/mL
same,serum levels compared with the level considered necessary for effective contraception in women,exceeded the level (200–600 pg/ml)
